The text below walks through data of patent publication US20230183239A1, “ECTONUCLEOTIDE PYROPHOSPHATASE-PHOSPHODIESTERASE 1 (ENPP-1) INHIBITORS AND USES THEREOF” (AbbVie Inc., priority 2017, published 2023).

pKi: −log10 of the molar value. Where only a bound is given, the exact number is not on record here.

The target in the assay is T1, ENPP1 (Homo sapiens, UniProt P22413).
T1 sequence (P22413 1-925): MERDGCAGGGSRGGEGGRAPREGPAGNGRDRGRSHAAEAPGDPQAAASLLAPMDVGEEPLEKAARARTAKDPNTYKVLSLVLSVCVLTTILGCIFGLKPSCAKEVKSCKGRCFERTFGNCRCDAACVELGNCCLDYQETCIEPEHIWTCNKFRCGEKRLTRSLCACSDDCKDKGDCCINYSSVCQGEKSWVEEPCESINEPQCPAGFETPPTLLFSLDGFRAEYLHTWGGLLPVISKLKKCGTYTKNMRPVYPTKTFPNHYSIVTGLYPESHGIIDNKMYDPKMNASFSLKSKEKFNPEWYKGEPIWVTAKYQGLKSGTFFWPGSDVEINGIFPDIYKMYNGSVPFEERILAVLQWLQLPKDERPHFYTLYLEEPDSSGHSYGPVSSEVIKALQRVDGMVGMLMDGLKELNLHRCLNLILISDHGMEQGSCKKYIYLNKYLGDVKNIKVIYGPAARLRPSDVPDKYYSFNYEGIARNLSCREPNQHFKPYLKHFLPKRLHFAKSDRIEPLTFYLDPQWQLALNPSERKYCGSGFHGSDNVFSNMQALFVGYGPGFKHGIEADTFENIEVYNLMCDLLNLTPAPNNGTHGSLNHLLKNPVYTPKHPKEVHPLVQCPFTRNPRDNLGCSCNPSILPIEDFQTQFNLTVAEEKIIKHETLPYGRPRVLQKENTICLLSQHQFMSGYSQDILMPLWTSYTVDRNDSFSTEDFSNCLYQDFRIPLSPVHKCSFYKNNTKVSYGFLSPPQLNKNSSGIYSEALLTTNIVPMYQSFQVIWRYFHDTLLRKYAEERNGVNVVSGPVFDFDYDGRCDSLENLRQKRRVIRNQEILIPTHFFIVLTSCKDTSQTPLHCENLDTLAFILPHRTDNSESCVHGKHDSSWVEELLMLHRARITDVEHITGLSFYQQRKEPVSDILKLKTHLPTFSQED
Briefly: Indirect quantitation of 2',3'-cGAMP hydrolysis (AMP-Glo Assay kit). Conditions: cGAMP substrate; Ki from IC50 by Cheng-Prusoff; read-out: ENPP1 Inhibition -cGAMP: Ki. The assay is classed as biochemical.
For `COc1cc2c(Oc3ccc(NS(N)(=O)=O)cc3)ccnc2cn1` [Example 411, N-(4-((6-methoxy-1,7-naphthyridin-4-yl)oxy)phenyl)sulfamide], the pKi was less than 6.00.

For `COc1cc2ncc(Oc3ccc(NS(N)(=O)=O)cc3)nc2cc1OC` [Example 280, N-(4-((6,7-dimethoxyquinoxalin-2-yl)oxy)phenyl)sulfamide], the pKi was less than 6.00.

Consider `Cn1cnc2ncnc(-c3ccc(CNS(N)(=O)=O)cc3)c21` [Example 128, N-(4-(7-methyl-7H-purin-6-yl)benzyl)sulfamide], for which the negative logarithm of the Ki (pKi) was 6.00 to 7.00.

Turning to `COc1cc2ncnc(N3CCC(CCNS(=O)(=O)Nc4ccccc4)CC3)c2cc1OC` [Example 183], the negative logarithm of the Ki (pKi) was less than 6.00.

In the case of `COc1ccc2c(-n3cc(CNS(N)(=O)=O)cn3)ccnc2c1` [Example 414, N-((1-(7-methoxyquinolin-4-yl)-1H-pyrazol-4-yl)methyl)sulfamide], the negative-log Ki (pKi) was 6.00 to 7.00.

On to `COc1ccc2c(-c3ccc(CNS(N)(=O)=O)cc3C)ccnc2c1` [Example 328, N-(4-(7-methoxyquinolin-4-yl)-3-methylbenzyl)sulfamide], for which the negative-log Ki (pKi) is 6.00 to 7.00.

Take `COc1cc2nccc(N3CCC(CN4CCCNS4(=O)=O)CC3)c2cc1OC` [Example 223, 2-((1-(6,7-dimethoxyquinolin-4-yl)piperidin-4-yl)methyl)-1,2,6-thiadiazinane 1,1-dioxide]: the negative-log Ki (pKi) is less than 6.00.

As to `COc1cc2ncnc(N3CCN(C(=O)CN)CC3)c2cc1OC` [Example 119, 2-amino-1-(4-(6,7-dimethoxyquinazolin-4-yl)piperazin-1-yl)ethan-1-one], the negative logarithm of the Ki (pKi) was less than 6.00.

For `COc1ccc(NC(=O)C2CCC(CNS(N)(=O)=O)CC2)cc1OC` (centres unmarked) [Example 133, N-(3,4-dimethoxyphenyl)-4-((sulfamoylamino)methyl)cyclohe xane-1-carboxamide], the negative-log Ki (pKi) is less than 6.00.

As for `COc1ccc2c(-c3ccc4c(c3)CNCC4)c(C#N)cnc2c1` [Example 276, 7-methoxy-4-(1,2,3,4-tetrahydroisoquinolin-7-yl)quinoline-3-carbonitrile], the pKi is less than 6.00.

Consider `CNS(=O)(=O)NCCC1CCN(c2ncnc3cc(OC)c(OC)cc23)CC1` [Example 168, 2-(1-(6,7-dimethoxyquinazolin-4-yl)piperidin-4-yl)ethan-1-amino(N-methyl)sulfonamide], for which the negative-log Ki (pKi) is less than 6.00.

Consider `COc1cc2nc(-c3ccccn3)nc(N3CCC(CCNS(N)(=O)=O)CC3)c2cc1OC` [Example 4, N-(2-(1-(6,7-dimethoxy-2-(pyridin-2-yl)quinazolin-4-yl)piperidin-4-yl)ethyl)sulfamide], for which the negative logarithm of the Ki (pKi) is less than 6.00.

For `NS(=O)(=O)NCCC1CCN(c2ccnc3cc4c(cc23)OCO4)CC1` [Example 215, N-(2-(1-([1,3]dioxolo[4,5-g]quinolin-8-yl)piperidin-4-yl)ethyl)sulfamide], the pKi was less than 6.00.

Turning to `COc1ccc2c(c1)OCC(=O)N2Cc1ccc(NS(N)(=O)=O)cc1` [Example 401, N-(4-((7-methoxy-3-oxo-2,3-dihydro-4H-benzo[b][1,4]oxazin-4-yl)methyl)phenyl)sulfamide], the pKi is less than 6.00.

In the case of `COc1ccc2c(N3CCc4ccc(NS(N)(=O)=O)cc43)ccnc2c1` [Example 391, N-(1-(7-methoxyquinolin-4-yl)indolin-6-yl)sulfamide], the negative-log Ki (pKi) was less than 6.00.

As for `COc1cc2ncnc(N3CCC(CCNS(=O)(=O)N4CCOCC4)CC3)c2cc1OC` [Example 132, N-(2-(1-(6,7-dimethoxyquinazolin-4-yl)piperidin-4-yl)ethyl)morpholine-4-sulfonamide], the negative-log Ki (pKi) was 6.00 to 7.00.

For `COc1cc2ncnc(Nc3ccc(CC(=O)O)cc3)c2cc1OC` [Example 332, 2-(4-((6,7-dimethoxyquinazolin-4-yl)amino)phenyl)acetic acid], the negative logarithm of the Ki (pKi) was less than 6.00.

For `COc1cc2ncnc(N3CCC(CCNS(=O)(=O)c4ccccc4)CC3)c2cc1OC` [Example 116, N-(2-(1-(6,7-dimethoxyquinazolin-4-yl)piperidin-4-yl)ethyl)benzenesulfonamide], the pKi was less than 6.00.

Take `COc1cc2nccc(-c3ccc(CNS(N)(=O)=O)cc3)c2cn1` [Example 415, N-(4-(7-methoxy-1,6-naphthyridin-4-yl)benzyl)sulfamide]: the pKi was 6.00 to 7.00.

In the case of `COc1cc2nccc(N3CCC(CCNS(=O)(=O)NCC(F)(F)F)CC3)c2cc1OC` [Example 177, 2-(1-(6,7-dimethoxyquinolin-4-yl)piperidin-4-yl)ethan-1-amino(N-trifluoroethyl) sulfonamide], the negative logarithm of the Ki (pKi) is less than 6.00.

As to `CNC(=O)c1cc(Oc2ccc(NS(N)(=O)=O)cc2)ccn1` [Example 127, N-methyl-4-(4-(sulfamoylamino)phenoxy)picolinamide], the negative-log Ki (pKi) is less than 6.00.

Regarding `COc1ccc2c(Oc3ccc(N(C4CC4)S(N)(=O)=O)cc3)ccnc2c1` [Example 310, N-cyclopropyl-N-(4-((7-methoxyquinolin-4-yl)oxy)phenyl)sulfamide], the pKi is more than 7.00.

On to `COc1cnc(C(=O)N2CCC(CCNS(N)(=O)=O)CC2)cc1OC` [Example 124, N-(2-(1-(4,5-dimethoxypicolinoyl)piperidin-4-yl)ethyl)sulfamide], for which the pKi is less than 6.00.

With `COc1cc2ncc(C#N)c(Oc3ccc(S(N)(=O)=O)cc3)c2cc1F` [Example 76, 4-((3-cyano-6-fluoro-7-methoxyquinolin-4-yl)oxy)benzenesulfonamide], the pKi was more than 7.00.

For the compound `COc1cc2cnn(-c3ccc(CNS(N)(=O)=O)cc3)c2cc1OC` [Example 166, N-(4-(5,6-dimethoxy-1H-indazol-1-yl)benzyl)sulfamide], the pKi is 6.00 to 7.00.

On to `COc1cc2nccc(Oc3ccc(NS(=O)(=O)C(F)(F)F)cc3)c2cc1OC` [Example 162, N-(4-((6,7-dimethoxyquinolin-4-yl)oxy)phenyl)-1,1,1-trifluoromethanesulfonamide], for which the pKi is more than 7.00.

Take `COc1cc2ncnc(-c3ccc(S(N)(=O)=O)cc3)c2cc1OC` [Example 333, 4-(6,7-dimethoxyquinazolin-4-yl)benzenesulfonamide]: the pKi is less than 6.00.

Turning to `COc1ccc2c(Oc3ccc(C(=O)O)c(OC)c3)ccnc2c1` [Example 347, 2-methoxy-4-((7-methoxyquinolin-4-yl)oxy)benzoic acid], the pKi is 6.00 to 7.00.

On to `COc1cc2ncnc(NC(C)(C)c3ccc(NS(N)(=O)=O)cc3)c2cc1OC` [Example 287, N-(4-(2-((6,7-dimethoxyquinazolin-4-yl)amino)propan-2-yl)phenyl)sulfamide], for which the negative logarithm of the Ki (pKi) is less than 6.00.

Turning to `COc1ccc2c(-c3ccc4c(c3)CCN(S(N)(=O)=O)C4)ccnc2c1` [Example 366, 6-(7-methoxyquinolin-4-yl)-3,4-dihydroisoquinoline-2(1H)-sulfonamide], the pKi was less than 6.00.

For the compound `COc1cc2ncnc(NCc3ccc(N4CCNS4(=O)=O)cc3)c2cc1OC` [Example 228, 2-(4-(((6,7-dimethoxyquinazolin-4-yl)amino)methyl)phenyl)-1,2,5-thiadiazolidine 1,1-dioxide], the pKi was less than 6.00.

For `COc1cc(NC(C)=O)c(C(=O)N2CCC(CCNS(N)(=O)=O)CC2)cc1OC` [Example 44, N-(4,5-dimethoxy-2-(4-(2-(sulfamoylamino)ethyl)piperidine-1-carbonyl)phenyl)acetamide], the pKi is less than 6.00.

With `COc1cc2ncc(-c3ccc(NS(N)(=O)=O)cc3)nc2cc1OC` [Example 270, N-(4-(6,7-dimethoxyquinoxalin-2-yl)phenyl)sulfamide], the negative-log Ki (pKi) was less than 6.00.

`COc1cc2ncn(Cc3ccc(NS(N)(=O)=O)cc3)c(=O)c2cc1OC` [Example 165, N-(4-((6,7-dimethoxy-4-oxoquinazolin-3 (4H)-yl)methyl)phenyl) sulfamide]: the negative logarithm of the Ki (pKi) was less than 6.00.

`NC(=O)c1ccc2nccc(N3CCC(CCNS(N)(=O)=O)CC3)c2c1` [Example 192, 4-(4-(2-(sulfamoylamino)ethyl)piperidin-1-yl)quinoline-6-carboxamide]: the pKi is less than 6.00.

On to `Cn1cc(Br)c2ncnc(N3CCC(CCNS(N)(=O)=O)CC3)c21` [Example 138, N-(2-(1-(7-bromo-5-methyl-SH-pyrrolo[3,2-d]pyrimidin-4-yl)piperidin-4-yl)ethyl)sulfamide], for which the pKi was 6.00 to 7.00.

Regarding `NS(=O)(=O)NCCC1CCN(c2ncnc3cc4c(cc23)OCO4)CC1` [Example 170, N-(2-(1-([1,3]dioxolo[4,5-g]quinazolin-8-yl)piperidin-4-yl)ethyl)sulfamide], the negative logarithm of the Ki (pKi) was less than 6.00.

With `COc1cc2nccc(N3CCC4(CCNC4=O)CC3)c2cc1OC` [Example 187, 8-(6,7-dimethoxyquinolin-4-yl)-2,8-diazaspiro[4.5]decan-1-one], the pKi was less than 6.00.

Broadly, the pKi is the Ki on a negative log10 scale, so that one unit is a factor of ten.
